Measurements from ChEMBL document CHEMBL1201862, “PubChem BioAssay data set” (2004).
Active and inactive are the calls of the source.

Experiments:
[1] = target: T1, Exodeoxyribonuclease V (Escherichia coli (strain K12), UniProt P04993+P07648+P08394); assay: RecBCD inhibition via phage-restricted bacterial growth – absorbance, V66 E. coli, mutant T4 phage, counter-screen for AddAB inhibitor project, dose response (AID 492957); format: functional, cell-based, Escherichia coli str. K-12 substr. MG1655
T1 sequence (P04993 whole entry): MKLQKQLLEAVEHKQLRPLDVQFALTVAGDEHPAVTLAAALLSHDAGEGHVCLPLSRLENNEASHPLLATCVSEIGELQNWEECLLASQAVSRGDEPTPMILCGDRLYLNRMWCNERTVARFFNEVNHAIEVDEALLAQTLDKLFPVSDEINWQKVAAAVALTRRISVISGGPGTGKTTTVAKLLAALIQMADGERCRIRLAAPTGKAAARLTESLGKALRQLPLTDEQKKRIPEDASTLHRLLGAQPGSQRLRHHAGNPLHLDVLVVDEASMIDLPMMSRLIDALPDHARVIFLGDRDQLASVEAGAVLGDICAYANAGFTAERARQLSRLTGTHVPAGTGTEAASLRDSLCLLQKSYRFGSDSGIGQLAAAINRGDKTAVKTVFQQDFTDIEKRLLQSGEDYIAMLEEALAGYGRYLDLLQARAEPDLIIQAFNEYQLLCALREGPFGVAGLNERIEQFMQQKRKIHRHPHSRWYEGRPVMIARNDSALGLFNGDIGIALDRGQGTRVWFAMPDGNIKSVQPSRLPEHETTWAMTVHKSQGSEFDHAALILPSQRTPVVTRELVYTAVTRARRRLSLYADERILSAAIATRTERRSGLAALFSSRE
T1 sequence (P07648 whole entry): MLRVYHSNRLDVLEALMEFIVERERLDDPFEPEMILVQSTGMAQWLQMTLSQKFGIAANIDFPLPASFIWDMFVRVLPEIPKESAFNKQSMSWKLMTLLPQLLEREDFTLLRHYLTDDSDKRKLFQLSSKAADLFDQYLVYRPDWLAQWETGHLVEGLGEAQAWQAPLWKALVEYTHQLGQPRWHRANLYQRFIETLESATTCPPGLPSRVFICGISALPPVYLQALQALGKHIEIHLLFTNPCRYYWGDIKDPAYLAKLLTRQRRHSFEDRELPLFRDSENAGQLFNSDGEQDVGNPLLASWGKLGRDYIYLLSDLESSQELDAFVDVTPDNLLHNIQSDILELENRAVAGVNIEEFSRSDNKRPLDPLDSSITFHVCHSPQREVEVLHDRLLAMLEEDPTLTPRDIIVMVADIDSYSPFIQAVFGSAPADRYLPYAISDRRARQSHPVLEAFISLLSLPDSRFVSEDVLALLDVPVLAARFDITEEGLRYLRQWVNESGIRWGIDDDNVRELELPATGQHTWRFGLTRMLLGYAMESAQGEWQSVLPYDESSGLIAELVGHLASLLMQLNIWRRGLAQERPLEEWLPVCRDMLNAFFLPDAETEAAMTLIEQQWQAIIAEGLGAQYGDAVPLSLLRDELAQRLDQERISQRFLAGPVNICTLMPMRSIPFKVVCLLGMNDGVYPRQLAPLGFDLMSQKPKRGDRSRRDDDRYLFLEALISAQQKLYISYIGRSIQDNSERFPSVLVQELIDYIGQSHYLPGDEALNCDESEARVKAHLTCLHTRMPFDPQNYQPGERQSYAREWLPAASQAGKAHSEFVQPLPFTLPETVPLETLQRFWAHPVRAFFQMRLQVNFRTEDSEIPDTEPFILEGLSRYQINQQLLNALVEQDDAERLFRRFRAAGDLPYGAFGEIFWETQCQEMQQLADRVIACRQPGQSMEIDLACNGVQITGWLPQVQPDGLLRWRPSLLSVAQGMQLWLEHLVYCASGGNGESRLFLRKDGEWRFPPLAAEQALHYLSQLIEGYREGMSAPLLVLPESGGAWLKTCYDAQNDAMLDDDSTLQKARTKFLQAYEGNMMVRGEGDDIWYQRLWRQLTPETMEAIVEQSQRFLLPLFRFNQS
T1 sequence (P08394 whole entry): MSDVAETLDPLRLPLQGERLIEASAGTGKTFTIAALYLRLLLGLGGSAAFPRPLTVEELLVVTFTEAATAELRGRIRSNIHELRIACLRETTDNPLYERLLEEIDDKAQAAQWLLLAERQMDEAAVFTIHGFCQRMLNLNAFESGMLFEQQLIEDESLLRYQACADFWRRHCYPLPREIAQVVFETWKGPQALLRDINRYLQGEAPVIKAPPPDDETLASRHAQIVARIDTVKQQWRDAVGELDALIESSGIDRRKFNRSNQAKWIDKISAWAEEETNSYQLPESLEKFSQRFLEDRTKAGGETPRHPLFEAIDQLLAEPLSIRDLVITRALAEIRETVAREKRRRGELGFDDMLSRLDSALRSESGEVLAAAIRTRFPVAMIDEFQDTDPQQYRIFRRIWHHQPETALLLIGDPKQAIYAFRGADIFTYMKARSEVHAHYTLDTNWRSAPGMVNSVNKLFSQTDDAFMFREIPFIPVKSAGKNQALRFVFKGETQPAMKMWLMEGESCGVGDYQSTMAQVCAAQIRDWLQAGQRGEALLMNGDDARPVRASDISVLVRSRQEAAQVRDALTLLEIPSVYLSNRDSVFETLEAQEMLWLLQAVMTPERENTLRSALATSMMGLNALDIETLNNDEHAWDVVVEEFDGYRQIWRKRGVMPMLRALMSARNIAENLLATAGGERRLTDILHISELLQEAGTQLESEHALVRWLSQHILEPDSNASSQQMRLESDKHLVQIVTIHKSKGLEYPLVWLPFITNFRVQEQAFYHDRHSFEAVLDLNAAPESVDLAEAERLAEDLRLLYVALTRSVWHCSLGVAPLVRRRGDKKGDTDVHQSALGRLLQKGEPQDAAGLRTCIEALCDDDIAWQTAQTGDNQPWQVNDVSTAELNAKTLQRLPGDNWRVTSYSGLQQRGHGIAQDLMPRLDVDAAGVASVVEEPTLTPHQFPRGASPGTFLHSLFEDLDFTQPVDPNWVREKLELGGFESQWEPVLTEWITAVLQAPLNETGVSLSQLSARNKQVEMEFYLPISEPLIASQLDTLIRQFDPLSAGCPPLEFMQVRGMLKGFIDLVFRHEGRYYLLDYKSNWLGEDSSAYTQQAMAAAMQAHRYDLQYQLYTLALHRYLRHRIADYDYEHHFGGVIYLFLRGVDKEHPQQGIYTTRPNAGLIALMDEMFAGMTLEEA

[2] = target: Intestinal-type alkaline phosphatase (Mus musculus, UniProt P24822); assay: PubChem AID 488874; format: functional
Intestinal-type alkaline phosphatase, sequence (P24822 whole entry): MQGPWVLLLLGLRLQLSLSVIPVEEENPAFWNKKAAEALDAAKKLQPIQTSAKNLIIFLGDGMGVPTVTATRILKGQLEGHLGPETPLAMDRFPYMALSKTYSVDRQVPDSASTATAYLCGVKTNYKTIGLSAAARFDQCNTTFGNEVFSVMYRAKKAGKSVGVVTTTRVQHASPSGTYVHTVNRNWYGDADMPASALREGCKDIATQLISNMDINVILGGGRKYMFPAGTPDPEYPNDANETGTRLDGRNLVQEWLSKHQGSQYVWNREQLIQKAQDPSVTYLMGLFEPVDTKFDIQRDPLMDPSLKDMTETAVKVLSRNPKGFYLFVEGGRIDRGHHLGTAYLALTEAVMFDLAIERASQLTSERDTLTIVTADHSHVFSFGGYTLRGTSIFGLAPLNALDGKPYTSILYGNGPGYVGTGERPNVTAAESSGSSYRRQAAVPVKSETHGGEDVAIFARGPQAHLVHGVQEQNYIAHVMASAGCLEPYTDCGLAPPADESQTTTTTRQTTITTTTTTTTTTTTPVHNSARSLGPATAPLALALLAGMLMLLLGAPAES

[3] = Counterscreen for AddAB inhibitors: absorbance-based bacterial cell-based high throughput dose response assay for inhibitors of bacterial viability. [Related pubchem assays (depositor defined):AID435030, AID449728, AID449731, AID488942, AID488955, AID488956]; format: functional

Row | Compound | IC50 [1] | IC50 [2] | IC50 [3]
1 | O=C(N/N=C/c1ccc(O)cc1O)C(=O)N/N=C/c1ccc(O)cc1O | > 119 µM (inactive) | 5.04 µM (active) | > 119 µM (inactive)
2 | Cc1onc(-c2ccccc2)c1C(=O)NC(=S)NNC(=O)c1ccc(O)cc1O | > 39.5 µM (inactive) |  | > 39.5 µM (inactive)
